{"source": "PubChem BioAssay (NCI)", "test_in_all_cases": "NCI tumour cell line growth inhibition, 48 h", "key": {"[1]": {"tested_on": "IGROV1 ovarian"}, "[2]": {"tested_on": "UO-31 renal"}, "[3]": {"tested_on": "UACC-257 melanoma"}, "[4]": {"tested_on": "SK-OV-3 ovarian"}, "[5]": {"tested_on": "SR leukemia"}, "[6]": {"tested_on": "HCC-2998 colon"}, "[7]": {"tested_on": "SF-295 CNS"}, "[8]": {"tested_on": "MDA-MB-435"}, "[9]": {"tested_on": "KM12 colon"}, "[10]": {"tested_on": "HL-60(TB) leukemia"}, "[11]": {"tested_on": "A549 NSCLC"}, "[12]": {"tested_on": "SF-539 CNS"}, "[13]": {"tested_on": "NCI-H460 lung"}, "[14]": {"tested_on": "UACC-62 melanoma"}, "[15]": {"tested_on": "SNB-75 CNS"}, "[16]": {"tested_on": "NCI/ADR-RES ovarian"}, "[17]": {"tested_on": "U251 CNS"}, "[18]": {"tested_on": "MOLT-4 leukemia"}, "[19]": {"tested_on": "MDA-MB-231 breast"}, "[20]": {"tested_on": "SF-268 CNS"}, "[21]": {"tested_on": "A498 renal"}, "[22]": {"tested_on": "MCF7 breast"}, "[23]": {"tested_on": "MDA-N"}, "[24]": {"tested_on": "NCI-H522 lung"}, "[25]": {"tested_on": "ACHN renal"}, "[26]": {"tested_on": "RPMI-8226 leukemia"}, "[27]": {"tested_on": "TK-10 renal"}, "[28]": {"tested_on": "OVCAR-3 ovarian"}, "[29]": {"tested_on": "COLO 205 colon"}, "[30]": {"tested_on": "NCI-H226 lung"}, "[31]": {"tested_on": "HT29 colon"}, "[32]": {"tested_on": "HCT-116 colon"}, "[33]": {"tested_on": "SNB-19 CNS"}, "[34]": {"tested_on": "HOP-92 NSCLC"}, "[35]": {"tested_on": "OVCAR-5 ovarian"}, "[36]": {"tested_on": "SK-MEL-28 melanoma"}, "[37]": {"tested_on": "LOX IMVI melanoma"}, "[38]": {"tested_on": "HS 578T breast"}, "[39]": {"tested_on": "M14 melanoma"}, "[40]": {"tested_on": "CAKI-1 renal"}, "[41]": {"tested_on": "HOP-62 NSCLC"}, "[42]": {"tested_on": "SK-MEL-2 melanoma"}, "[43]": {"tested_on": "NCI-H23 lung"}, "[44]": {"tested_on": "DU-145 prostate"}, "[45]": {"tested_on": "HCT-15 colon"}, "[46]": {"tested_on": "SN12C renal"}, "[47]": {"tested_on": "EKVX NSCLC"}, "[48]": {"tested_on": "K-562 leukemia"}, "[49]": {"tested_on": "CCRF-CEM leukemia"}, "[50]": {"tested_on": "SW-620 colon"}, "[51]": {"tested_on": "OVCAR-8 ovarian"}, "[52]": {"tested_on": "T-47D breast"}, "[53]": {"tested_on": "PC-3 prostate"}, "[54]": {"tested_on": "786-0 renal"}, "[55]": {"tested_on": "SK-MEL-5 melanoma"}, "[56]": {"tested_on": "RXF 393 renal"}, "[57]": {"tested_on": "OVCAR-4 ovarian"}, "[58]": {"tested_on": "MALME-3M melanoma"}, "[59]": {"tested_on": "BT-549 breast"}}, "note": "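Following 48 hours of exposure in 96-well plates, responses at five concentrations were used to interpolate endpoints linearly. TGI: total growth inhibition.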"}
{"compound": "CCCNC(=S)N/N=C(\\C)c1ccc(S(=O)(=O)N(C)c2ccccc2)cc1", "values": [{"measurement": "TGI", "setting": "[1]", "result": "> 66.1", "unit": "µM"}, {"measurement": "TGI", "setting": "[2]", "result": "> 100", "unit": "µM"}, {"measurement": "TGI", "setting": "[3]", "result": "> 100", "unit": "µM"}, {"measurement": "TGI", "setting": "[4]", "result": 97, "unit": "µM"}, {"measurement": "TGI", "setting": "[5]", "result": "> 100", "unit": "µM"}, {"measurement": "TGI", "setting": "[6]", "result": "> 100", "unit": "µM"}, {"measurement": "TGI", "setting": "[7]", "result": 58, "unit": "µM"}, {"measurement": "TGI", "setting": "[8]", "result": "> 100", "unit": "µM"}, {"measurement": "TGI", "setting": "[9]", "result": "> 100", "unit": "µM"}, {"measurement": "TGI", "setting": "[10]", "result": "> 100", "unit": "µM"}, {"measurement": "TGI", "setting": "[11]", "result": "> 100", "unit": "µM"}, {"measurement": "TGI", "setting": "[12]", "result": 21.7, "unit": "µM"}, {"measurement": "TGI", "setting": "[13]", "result": "> 100", "unit": "µM"}, {"measurement": "TGI", "setting": "[14]", "result": "> 100", "unit": "µM"}, {"measurement": "TGI", "setting": "[15]", "result": "> 58.4", "unit": "µM"}, {"measurement": "TGI", "setting": "[16]", "result": "> 100", "unit": "µM"}, {"measurement": "TGI", "setting": "[17]", "result": "> 78", "unit": "µM"}, {"measurement": "TGI", "setting": "[18]", "result": "> 100", "unit": "µM"}, {"measurement": "TGI", "setting": "[19]", "result": "> 100", "unit": "µM"}, {"measurement": "TGI", "setting": "[20]", "result": 41.8, "unit": "µM"}, {"measurement": "TGI", "setting": "[21]", "result": "> 100", "unit": "µM"}, {"measurement": "TGI", "setting": "[22]", "result": "> 100", "unit": "µM"}, {"measurement": "TGI", "setting": "[23]", "result": "> 100", "unit": "µM"}, {"measurement": "TGI", "setting": "[24]", "result": "> 100", "unit": "µM"}, {"measurement": "TGI", "setting": "[25]", "result": "> 64.9", "unit": "µM"}, {"measurement": "TGI", "setting": "[26]", "result": "> 31.6", "unit": "µM"}, {"measurement": "TGI", "setting": "[27]", "result": "> 91.6", "unit": "µM"}, {"measurement": "TGI", "setting": "[28]", "result": "> 100", "unit": "µM"}, {"measurement": "TGI", "setting": "[29]", "result": "> 100", "unit": "µM"}, {"measurement": "TGI", "setting": "[30]", "result": "> 75.6", "unit": "µM"}, {"measurement": "TGI", "setting": "[31]", "result": "> 100", "unit": "µM"}, {"measurement": "TGI", "setting": "[32]", "result": "> 100", "unit": "µM"}, {"measurement": "TGI", "setting": "[33]", "result": "> 87.3", "unit": "µM"}, {"measurement": "TGI", "setting": "[34]", "result": "> 100", "unit": "µM"}, {"measurement": "TGI", "setting": "[35]", "result": "> 100", "unit": "µM"}, {"measurement": "TGI", "setting": "[36]", "result": "> 100", "unit": "µM"}, {"measurement": "TGI", "setting": "[37]", "result": "> 100", "unit": "µM"}, {"measurement": "TGI", "setting": "[38]", "result": 24.4, "unit": "µM"}, {"measurement": "TGI", "setting": "[39]", "result": "> 87.4", "unit": "µM"}, {"measurement": "TGI", "setting": "[40]", "result": 97.7, "unit": "µM"}, {"measurement": "TGI", "setting": "[41]", "result": 29, "unit": "µM"}, {"measurement": "TGI", "setting": "[42]", "result": "> 100", "unit": "µM"}, {"measurement": "TGI", "setting": "[43]", "result": "> 100", "unit": "µM"}, {"measurement": "TGI", "setting": "[44]", "result": "> 100", "unit": "µM"}, {"measurement": "TGI", "setting": "[45]", "result": "> 100", "unit": "µM"}, {"measurement": "TGI", "setting": "[46]", "result": "> 100", "unit": "µM"}, {"measurement": "TGI", "setting": "[47]", "result": "> 100", "unit": "µM"}, {"measurement": "TGI", "setting": "[48]", "result": "> 100", "unit": "µM"}, {"measurement": "TGI", "setting": "[49]", "result": "> 31.6", "unit": "µM"}, {"measurement": "TGI", "setting": "[50]", "result": "> 100", "unit": "µM"}, {"measurement": "TGI", "setting": "[51]", "result": "> 100", "unit": "µM"}, {"measurement": "TGI", "setting": "[52]", "result": "> 100", "unit": "µM"}, {"measurement": "TGI", "setting": "[53]", "result": "> 100", "unit": "µM"}, {"measurement": "TGI", "setting": "[54]", "result": "> 72.9", "unit": "µM"}, {"measurement": "TGI", "setting": "[55]", "result": "> 100", "unit": "µM"}, {"measurement": "TGI", "setting": "[56]", "result": 38.2, "unit": "µM"}, {"measurement": "TGI", "setting": "[57]", "result": "> 100", "unit": "µM"}, {"measurement": "TGI", "setting": "[58]", "result": "> 100", "unit": "µM"}, {"measurement": "TGI", "setting": "[59]", "result": "> 100", "unit": "µM"}]}
